Results on one molecule are retold here after patent US10690672B2, “Methods for breast cancer treatment” (GEORGE MASON UNIVERSITY, priority 2015, dated 2020).

Test [1] concerns breast cancer. The test can be described thus: I-SPY 2 TRIAL: pathological complete response (pCR) to neratinib plus standard chemotherapy vs concurrent control.
Method: Subjects providing samples (pre-treatment biopsies) for studies described herein were characterized based on measurement of estrogen/hormone receptor (HR) and HER2 (c-erbB2), and were described by HER2−/HR−. HER2+/HR+. HER2+/HR−, HER2−/HR+ phenotypes. Response to treatment was determined by the amount of tumor shrinkage and a lack of appreciable tumor evident at surgery. A response of tumor shrinkage and/or lack of tumor when examined (such as at surgery) is referred to herein as “complete pathological response” (pCR), and has recently been deemed by the US FDA as an appropriate clinical endpoint for therapeutic approval. Neratinib is a therapeutic agent with a mechanism of action that is as a tyrosine kinase inhibitor that binds to and inhibits c-erbB2 and EGFR protein activity and the respective linked downstream pathways. […] Methods described herein may comprise obtaining measurements of the amounts proteins from a subject sample using a protein array technology developed by the inventors, and is referred to herein as “reverse phase protein microarray” (RPPA). This microarray allows for quantitative measurement of the amount of proteins and/or phosphorylated proteins in the tumor or cancerous cells from pretreatment sample, for example from biopsy specimens of women with Stage II/III breast cancer.
This example tested the hypothesis that the response to the pan-ERBB inhibitor, neratinib, was predicted by pre-treatment HER2-EGFR signaling. […] All patients received at least standard chemotherapy (which was comprised of 12 weekly cycles of paclitaxel (a taxane) therapy followed by 4 cycles of doxorubicin/cyclophosphamide (AC) therapy). For HER2+ patients, neratinib was administered in place of trastuzumab, and all HER2+ control arm patients received chemotherapy plus trastuzumab. 18 HER family signaling proteins were evaluated as biomarkers of neratinib response using reverse phase protein microarray (RPMA) data from pre-treatment laser capture microdissection (LCM) purified tumor epithelium.
Eighteen (18) protein/phosphoproteins biomarkers relating to HER family signaling were evaluated: AKT S473, AKT T308, EGFR, EGFR Y1068, EGFR Y1148, EGFR Y1173, EGFR Y992, ERBB2, ERBB2 Y1248, ERBB3 total, ERBB3 Y1289, ERK1/2 T202/Y204, Heregulin, mTOR, mTOR S2448, PI3K p85 Y458/p55 Y199, PTEN S380, and SHC Y317. This study assessed association between biomarker and response in the neratinib and control arms alone (likelihood ratio test), and relative performance between arms (biomarker×treatment interaction) using a logistic model. Analysis was also performed adjusting for HR/HER2 status.
The subject of test [2] is breast cancer. The test can be described thus: Bayesian analysis (MCMC simulation on I-SPY 2 data): probability of superiority to control and of Phase III success. Type of test: in vivo, human. The text has this: Bayesian analysis was completed using the MCMC simulation based on I-SPY 2 data with the following model: pCR˜HR+HER2+biomarker+treatment+treatment*HR+treatment*HER2+treatment*biomarker. No multiple comparison adjustments were applied. The Bayesian analytical engine developed by Don Berry (Yee et al J Clin Oncol. 2012 Dec. 20; 30(36):4584-6), is a mathematical approach that evaluates the clinical performance of a drug (in this case, neratinib) in both the treatment arm (in this case tumor shrinkage estimates by size changes observed by MRI), coupled with complete pathological response (pCR) as measured as the final response determinant, and the response of the predicate therapy in the control arm. This evaluation determined success of a given therapy for a Phase III trial, and in this case, it was determined that phosphorylation of EGFR at Y1173 was not only statistically significant at predicting or assessing response to neratinib in all patients regardless of hormone receptor levels and HER2 levels (HER2+, HER2− and HR+ and HR−), but when patients with high levels of phosphorylated EGFR (Y1173) were added to the HR−/HER2+ subgroup, the prevalence of ‘biomarker-positive’ patients increased by 50%, while increasing the predicted probability of Phase III success to 90%. Moreover, when EGFR Y1173 was used as a single marker, a statistically significant increase in Phase III success was determined for all patients compared to HER2+/HR− status as measured by immunohistochemical methods. (93% vs 87%).

For the molecule `CCOc1cc2ncc(C#N)c(Nc3ccc(OCc4ccccn4)c(Cl)c3)c2cc1NC(=O)/C=C/CN(C)C` [Neratinib], the “OR associated with treatment (pCR)” value is listed as 3.2 in the test with breast cancer [1] (EGFR Y1173 High patients added to the graduating HR−/HER2+ subset) and 2.1 in the test on breast cancer [1] (HR−/HER2+ signature). The “odds ratio (OR) of pCR between EGFR Y1173 groups in the N relative to control arm” value in the test on breast cancer [1] (EGFR Y1173 High vs Low, neratinib arm relative to control arm) amounted to 10.1. The clinical response result in the test on breast cancer [1] (HER2+/HR− subtype) is recorded as “statistically significant clinical response”. Besides, the pCR rate with breast cancer [1] (HR−/HER2+ patients, EGFR Y1173 High, neratinib arm) was 12/18 (67%); with breast cancer [1] (HR−/HER2+ patients, EGFR Y1173 Low, neratinib arm (neratinib in place of trastuzumab + paclitaxel then AC)), 0/4 (0%); in the test with breast cancer [1] (Not HR−/HER2+ patients, EGFR Y1173 High, neratinib arm), 24/57 (42%); in the test with breast cancer [1] (Not HR−/HER2+ patients, EGFR Y1173 Low, neratinib arm), 3/27 (11%). In addition, in the test with breast cancer [1] (I-SPY 2 TRIAL, HR−/HER2+ signature), the “trial outcome (graduation)” value was “graduated”. Further, in the test with breast cancer [1] (regardless of HER2/HR status), the pCR by subtype result was “pCR was observed in every subtype”. In addition, the “Prob > CTRL (probability of Neratinib superiority to control)” value with breast cancer [2] (EGFR Y1173 High) is on record as 0.99; in the test with breast cancer [2] (HR−/HER2+) it was 0.97; with breast cancer [2] (HR−/HER2+ AND EGFR Y1173 High), 0.99; in the test on breast cancer [2] (HR−/HER2+ OR EGFR Y1173 High) it was 0.99. Also, the “Prob Ph III Success” value with breast cancer [2] (EGFR Y1173 High) is recorded as 0.93; in the test on breast cancer [2] (HR−/HER2+), 0.87; with breast cancer [2] (HR−/HER2+ AND EGFR Y1173 High) it was 0.95; in the test with breast cancer [2] (HR−/HER2+ OR EGFR Y1173 High), 0.9. The “probability of Phase III success” value with breast cancer [2] (EGFR Y1173 used as a single marker, all patients) was 93%; in the test on breast cancer [2] (HER2+/HR− status by immunohistochemical methods) it was 87%. Further, the “predicted probability of Phase III success” value with breast cancer [2] (patients with high phosphorylated EGFR (Y1173) added to the HR−/HER2+ subgroup) was 90%.
